Assay [1] deals with HSCs activation (α-SMA, vimentin, desmin). As to the kind of experiment: CCl4 mouse model: HSC activation markers in liver. The format is in vivo, C57BL/6 mice. The following applies: CCl4 mice. As for the experimental part: (§1) C57BL/6 mice (20 ± 2 g) were obtained from Hangzhou Medical College Experimental Animal Center (Hangzhou, China). The animals were maintained under controlled temperature (22°C ± 1°C), humidity (50%), and light (12 h light/12 h dark). The animals were fed a standard laboratory diet and provided with free access to tap water. All animals received humane care according to institutional animal care guidelines approved by the Experimental Animal Ethical Committee of Hangzhou Medical College. Forty mice were randomly divided into six groups: (1) vehicle control (n = 7); (2) CCl4 model (n = 7); (3) CCl4 + LIN (20 mg/kg) (n = 7); (4) CCl4 + LIN (40 mg/kg) (n = 7); (5) LIN (40 mg/kg) (n = 7); and (6) CCl4 + silymarin (SIL) (200 mg/kg) (n = 5). LIN and SIL were dissolved in 0.5% CMC-Na solution. Mice were administered LIN or SIL (intragastric administration, i.g.) once per day and CCl4 (intraperitoneal injection, i.p.; mixed 1:3 in olive oil, 2 mL/kg) twice per week for 4 weeks. Mice in the vehicle control group received olive oil (i.p. twice a week, 4 weeks) and 0.5% CMC-Na (i.g. every day, 4 weeks). After treatment, the mice were sacrificed, and plasma and liver tissues were collected and further analysed.
(§2) Total RNA was extracted from liver tissues and LX-2 cells using the TRIzol reagent. cDNA was synthesised using a PrimeScript RT Master Mix kit. Real-time PCR was performed using SYBR Green premix according to the manufacturer’s instructions. Relative expression of target genes was normalised to actin, analysed by the delta-delta-CT method and given as a ratio compared with the vehicle control. Primer sequences used in this study are listed in Supplementary Material.
The formalin-fixed and de-paraffinized liver sections (5 μm) were incubated with 5% bovine serum albumin to minimise non-specific binding, and then incubated with α-SMA antibody (Santa Cruz, SC-53142) in a humidified chamber overnight at 4°C. After washing thrice with PBS, the sections were incubated with FITC-conjugated secondary antibody (SH0058; Skyhobio) for 1 h. After washing thrice, the liver sections were incubated with DAPI for 10 min. Images were captured using an inverted microscope (IX81; Olympus, Japan).
Paraffin-embedded liver sections were deparaffinized in xylene, rehydrated in a gradient of ethanol to distilled water, and then quenched by 3% hydrogen peroxide and then incubated with 5% bovine serum albumin, followed by incubation with vimentin antibody (ABclonal, A19607) at 4°C overnight, and further detected by using DAKO EnVision detection kits (Agilent Technologies Co., Ltd. K346811). The sections were counterstained with haematoxylin. Images were taken using an inverted microscope, and vimentin-positive cells were counted manually using Image-Pro Plus 6 in three random fields per sample (each group contained three samples).
(§3) Liver proteins were isolated by using a lysis buffer containing 50 mM Tris-HCl (pH7.5), 150 mM NaCl, 1 mM EDTA, 20 mM NaF, 0.5% NP-40, 10% glycerol, 1 mM phenylmethylsulphonyl fluoride, 10 μg/mL aprotinin, 10 μg/mL leupeptin, and 10 μg/mL pepstatin. The supernatants were collected after centrifugation at 3,000 g for 10 min at 4°C, and the protein concentration of each sample was determined and normalised to the same protein concentration. Protein samples were separated by sodium dodecyl sulphate-polyacrylamide gel electrophoresis and transferred onto polyvinylidene fluoride membranes. The membranes were incubated with the indicated primary and secondary antibodies, and the proteins in the membranes were visualised using a chemiluminescence kit. TGF-® antibody (CST, 3711), Smad 2/3 antibody (CST, 8685), p-Smad 2/3 antibody (CST, 8828), anti-α-SMA antibody (Santa Cruz, SC-53142), vimentin antibody (ABclonal, A19607), desmin antibody (ABclonal, A3736), GAPDH antibody (Beyotime, AF0006), and SHP2 antibody (CST, 3397). […]

The test system of another assay is TGF-β/Smad pathway. As to the kind of experiment: CCl4 mouse model: liver TGF-β/Smad signalling (real-time PCR, Western blot). The format is in vivo, C57BL/6 mice. As for the experimental part: as §1, §2, §3
(In qPCR the cycle at which signal appears reflects the starting amount.)

The mark [2] stands for this setting: LIN 20 mg/kg, Western blot, p < 0.05.

On to `C/C1=C\CCC2=C[C@@H](OC2=O)c2c(C)coc2C1` [LIN, linderalactone], for which the “liver α-SMA accumulation (immunofluorescence staining)” value in assay [1] (LIN) is “largely inhibited”. In assay [1] (setting [2]), the “protein expression of hepatic Des” value is on record as “significant reduction”, the “protein expression of hepatic Vim” value is “significant reduction” and the “protein expression of hepatic α-SMA” value is “significant reduction”. For the same molecule, in assay [1] (LIN 20 and 40 mg/kg), the “hepatic mRNA expression of Des” value was “significantly reduced”, the “hepatic mRNA expression of Vim” value is listed as “significantly reduced” and the “hepatic mRNA expression of acta2” value is given as “significantly reduced”. Also, in the assay on TGF-β/Smad pathway (CCl4 mice, LIN 40 mg/kg, Western blot), the “hepatic TGF-β protein expression” value is “reduced”. Also, the “hepatic TGF-β mRNA expression” value with TGF-β/Smad pathway (CCl4 mice, LIN 40 mg/kg, real-time PCR) is listed as “reduced”. Moreover, the “Smad2/3 phosphorylation in the liver” value in the assay with TGF-β/Smad pathway (CCl4 mice, Western blot) is listed as “significantly inhibited”. In addition, the “expression level of SHP2 protein” value in the assay with TGF-β/Smad pathway (liver (Figure 4D) and LX-2 cells (Figure S2), Western blot) is recorded as “do not affect”.

(Values after paper PMC9946977, “Identification of linderalactone as a natural inhibitor of SHP2 to ameliorate CCl4-induced liver fibrosis” (Frontiers in Pharmacology, 2023).)
